From patent publication US8895750B2, “Heteroaromatic compounds as BTK inhibitors” (Boehringer Ingelheim International GmbH, priority 2013, dated 2014) come the findings set out here.

T1 sequence (Q06187 whole entry): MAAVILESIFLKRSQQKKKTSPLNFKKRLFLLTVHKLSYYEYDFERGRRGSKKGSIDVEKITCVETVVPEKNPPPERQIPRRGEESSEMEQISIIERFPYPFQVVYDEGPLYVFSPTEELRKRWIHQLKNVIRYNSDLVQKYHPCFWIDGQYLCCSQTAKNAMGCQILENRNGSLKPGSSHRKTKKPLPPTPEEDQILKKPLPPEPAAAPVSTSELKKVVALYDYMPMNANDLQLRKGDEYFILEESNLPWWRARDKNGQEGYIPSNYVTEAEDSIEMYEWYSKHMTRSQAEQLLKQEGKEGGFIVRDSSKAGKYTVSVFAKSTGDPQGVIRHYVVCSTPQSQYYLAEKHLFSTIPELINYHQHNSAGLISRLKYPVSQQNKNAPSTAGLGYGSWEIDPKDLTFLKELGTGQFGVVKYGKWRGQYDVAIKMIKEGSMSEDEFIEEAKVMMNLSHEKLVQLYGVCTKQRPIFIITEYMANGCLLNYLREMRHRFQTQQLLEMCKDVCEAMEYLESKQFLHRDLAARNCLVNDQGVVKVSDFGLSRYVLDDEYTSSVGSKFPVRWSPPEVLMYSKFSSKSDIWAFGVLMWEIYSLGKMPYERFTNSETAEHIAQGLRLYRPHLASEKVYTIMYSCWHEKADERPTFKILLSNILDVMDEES

This test concerns the target T1, full-length human His-tagged BTK (Homo sapiens, UniProt Q06187).
T1 construct: 6 nM of full-length human His-tagged BTK (Life Technologies cat #PV3587); His; purchased Life Technologies PV3587
Briefly: BTK HTRF assay (Cisbio KinEASE-TK). The test is classed as biochemical. As to conditions: 6 nM BTK, 15 min preincubation at 28° C., 1 uM TK substrate-biotin, 30 uM ATP. The method, then:
An HTRF assay (Cisbio KinEASE-TK cat #62TK0PEC) was performed to quantitate the ability of test compounds to inhibit BTK mediated phosphorylation of substrate. Assays were assembled in 384 well plates where 6 nM of full-length human His-tagged BTK (Life Technologies cat #PV3587) and test compound at varying concentrations were preincubated for 15 minutes at 28° C. Then, 1 uM of TK substrate-biotin and 30 uM ATP were added and incubated for an additional 30 minutes at 28° C. Phospohrylation was detected by adding 62.5 nM Streptavidin-XL665 and TK-Antibody Cryptate diluted 1:100 in HTRF detection buffer (Cisbio cat #62SDBRDF) and incubated for 60 minutes at RT. The plate was read on an Envision plate reader and the fluoresence is measured at 620 nm (cryptate) and 665 nm (XL665). A ratio is calculated (665/620) and converted to POC relative to control and blank wells.
50 mM HEPES (Invitrogen #15630), 0.01% Brij-35 (sigma #B4184), 10 mM MgC12 (Sigma M1028), 1 mM EGTA (Ambion AM9262) and 100 uM sodium orthovanedate (Sigma S6508), 1 mM DTT (Sigma D5545) and 10 nM supplement enzyme buffer (Cisbio cat#61SEBALB).
(In general: Time-resolved FRET reads energy transfer from a long-lived donor to a nearby acceptor.)
As a reminder, the IC50 is the midpoint of a concentration-inhibition curve. The low end stands for greater potency, the high end for weaker potency. The molecule `CN(C)CCC(=O)N1CCN(c2nc(-c3ccc(Oc4ccccc4)cc3)c(C(N)=O)s2)CC1` [Example 26] registered an IC50 of 69 nM.

In the case of `CC#CC(=O)N1CCN(c2nc(-c3ccc(Oc4ccccc4)cc3)c(C(N)=O)s2)[C@@H](C)C1` [Example 21], the IC50 was found to be 1.2 nM.

`CC(C)(O)C#CC(=O)N1CCN(c2nc(-c3ccc(Oc4ccccc4)cc3)c(C(N)=O)s2)CC1` [Example 37] gave an IC50 of 0.65 nM.

Molecule `CC#CC(=O)N1CCN(c2nc(-c3ccc(Oc4ccccc4)cc3)c(C(N)=O)s2)CC1C` (stereo not shown) [Example 25] came in with a half-inhibitory concentration (IC50) of 1 nM.

As for `CC#CC(=O)N1[C@@H]2CC[C@H]1CN(c1nc(-c3ccc(Oc4ccccc4)cc3)c(C(N)=O)s1)C2` [Example 18], the IC50 was 0.62 nM.

Take `CCC(=O)N1CC2(C1)CN(c1nc(-c3ccc(Oc4ccccc4)cc3)c(C(N)=O)s1)C2` [Example 31]: the IC50 was over 1000 nM.

The molecule `CC#CC(=O)NC[C@@H]1CCCN1c1nc(-c2ccc(Oc3ccccc3)cc2)c(C(N)=O)s1` [Example 36] showed a 50% inhibitory concentration (IC50) of 14 nM.

Regarding `CC#CC(=O)NC[C@H]1CCCN1c1nc(-c2ccc(Oc3ccccc3)cc2)c(C(N)=O)s1` [Example 41], the IC50 amounted to 30 nM.

On to `CN(C)C/C=C/C(=O)N1CC2(CCN(c3nc(-c4ccc(Oc5ccccc5)cc4)c(C(N)=O)s3)C2)C1` [Example 10], for which half-maximal inhibition (IC50) required 110 nM.

Turning to `CN(C)C/C=C/C(=O)N1CC2(C1)CN(c1nc(-c3ccc(Oc4ccccc4)cc3)c(C(N)=O)s1)C2` [Example 13], it took 510 nM to reach half-maximal inhibition (IC50).

Take `CC#CC(=O)N1CCN(c2nc(-c3cnn(Cc4ccccc4)c3)c(C(N)=O)s2)CC1` [Example 28]: the IC50 was over 1000 nM.

In the case of `C=CC(=O)N[C@@H]1CCCN(c2nc(-c3ccc(Oc4ccccc4)cc3)c(C(N)=O)s2)C1` [Example 5], 13 nM corresponded to half-maximal inhibition (IC50).

For `C=CC(=O)N1CCCC12CCN(c1nc(-c3ccc(Oc4ccccc4)cc3)c(C(N)=O)s1)CC2` [Example 23], the IC50 stood at 43 nM.

With `C=CC(=O)N1CCN(c2nc(-c3ccc(Oc4ccccc4)cc3)c(C(N)=O)s2)[C@@H](C)C1` [Example 17], half-maximal inhibition (IC50) required 0.87 nM.

`CN(C)C/C=C/C(=O)NC[C@@H]1CCCN1c1nc(-c2ccc(Oc3ccccc3)cc2)c(C(N)=O)s1` [Example 43] had an IC50 of 52 nM.

Consider `C/C=C/C(=O)N1CC2(C1)CN(c1nc(-c3ccc(Oc4ccccc4)cc3)c(C(N)=O)s1)C2` [Example 14], for which the IC50 is over 1000 nM.

In turn, `CC#CC(=O)N[C@@H]1CCCN(c2nc(-c3ccc(Oc4ccccc4)cc3)c(C(N)=O)s2)C1` [Example 4] returned an IC50 of 95 nM.

For the molecule `C=CC(=O)N(C)C1CCN(c2nc(-c3ccc(Oc4ccccc4)cc3)c(C(N)=O)s2)CC1` [Example 2], the midpoint of inhibition, the IC50, lay at 4.8 nM.

In turn, `CC#CC(=O)N1CCN(c2nc(-c3ccc(Oc4ccccc4)cc3)c(C(N)=O)s2)CC1` [Example 7] yielded an IC50 of 0.67 nM.

Molecule `CC#CC(=O)N1CCN(c2nc(-c3ccc(Oc4ccccc4)nc3)c(C(N)=O)s2)CC1` [Example 33] returned an IC50 of 180 nM.

The molecule `NC(=O)c1sc(N2CC3(CN(C(=O)/C=C/CN4CCOCC4)C3)C2)nc1-c1ccc(Oc2ccccc2)cc1` [Example 15] returned an IC50 of over 1000 nM.

Take `C=CC(=O)NC[C@H]1CCCN1c1nc(-c2ccc(Oc3ccccc3)cc2)c(C(N)=O)s1` [Example 40]: 120 nM corresponded to half-maximal inhibition (IC50).

Take `CC#CC(=O)N1CC2(CCN(c3nc(-c4ccc(Oc5ccccc5)cc4)c(C(N)=O)s3)C2)C1` [Example 9]: half-maximal inhibition (IC50) required 4.3 nM.

With `CC#CC(=O)N1C[C@@H]2C[C@H]1CN2c1nc(-c2ccc(Oc3ccccc3)cc2)c(C(N)=O)s1` [Example 16], the IC50 was determined as 1.2 nM.

`CC#CC(=O)N1CCN(c2nc(-c3ccc(Oc4ccccc4)cn3)c(C(N)=O)s2)CC1` [Example 45] returned an IC50 of 40 nM.

Consider `C=CC(=O)N1CC2(CCN(c3nc(-c4ccc(Oc5ccccc5)cc4)c(C(N)=O)s3)C2)C1` [Example 8], for which the IC50 was found to be 5.6 nM.

For the molecule `C=CC(=O)N1CC2(C1)CN(c1nc(-c3ccc(Oc4ccccc4)cc3)c(C(N)=O)s1)C2` [Example 12], half-maximal inhibition (IC50) required 4.1 nM.

Regarding `CC#CC(=O)N1CC2(C1)CN(c1nc(-c3ccc(Oc4ccccc4)cc3)c(C(N)=O)s1)C2` [Example 11], the IC50 came to 8.8 nM.

The molecule `NC(=O)c1sc(N2CCN(C(=O)C#CCO)CC2)nc1-c1ccc(Oc2ccccc2)cc1` [Example 39] came in with an IC50 of 0.69 nM.

Take `C=CC(=O)N1CCC2(C1)CN(c1nc(-c3ccc(Oc4ccccc4)cc3)c(C(N)=O)s1)C2` [Example 1]: half-maximal inhibition (IC50) was put at 8.5 nM.

Turning to `CC#CC(=O)N1CCN(c2nc(-c3ccc(Br)cc3)c(C(N)=O)s2)CC1` [Example 30], 73 nM corresponded to half-maximal inhibition (IC50).

The molecule `C=CC(=O)N1[C@@H]2CC[C@H]1CN(c1nc(-c3ccc(Oc4ccccc4)cc3)c(C(N)=O)s1)C2` [Example 19] gave a half-maximal inhibitory concentration (IC50) of 0.48 nM.

`C=CC(=O)N1CCN(c2nc(-c3ccc(Oc4ccccc4)nc3)c(C(N)=O)s2)CC1` [Example 32] displayed an IC50 of 17 nM.

Turning to `CC#CC(=O)N(C)C1CCN(c2nc(-c3ccc(Oc4ccccc4)cc3)c(C(N)=O)s2)CC1` [Example 3], the IC50 was determined as 2.6 nM.

On to `NC(=O)c1sc(N2CCN(C(=O)C#CCN3CCOCC3)CC2)nc1-c1ccc(Oc2ccccc2)cc1` [Example 42], for which the IC50 was determined as 0.7 nM.

With `CC#CC(=O)N1CCN(c2nc(-c3cccc(C(=O)Nc4ccccc4)c3)c(C(N)=O)s2)CC1` [Example 46], the IC50 was over 1000 nM.

Consider `CC#CC(=O)N1CCN(c2nc(-c3ccc(S(C)(=O)=O)cc3)c(C(N)=O)s2)CC1` [Example 38], for which the IC50 was over 1000 nM.

As to `C=CC(=O)NC[C@@H]1CCCN1c1nc(-c2ccc(Oc3ccccc3)cc2)c(C(N)=O)s1` [Example 35], the half-maximal inhibitory concentration (IC50) came out at 11 nM.

As for `C/C=C/C(=O)N1CCN(c2nc(-c3ccc(Oc4ccccc4)nc3)c(C(N)=O)s2)CC1` [Example 34], the IC50 amounted to 700 nM.

Molecule `C=CC(=O)N1CCN(c2nc(-c3ccc(Oc4ccccc4)cc3)c(C(N)=O)s2)CC1` [Example 6] had a half-inhibitory concentration (IC50) of 0.3 nM.

As to `C=CC(=O)N1CCN(c2nc(-c3ccc(Br)cc3)c(C(N)=O)s2)CC1` [Example 29], the IC50 came out at 6.6 nM.

`CN(C)C/C=C/C(=O)NC[C@H]1CCCN1c1nc(-c2ccc(Oc3ccccc3)cc2)c(C(N)=O)s1` [Example 44] had an IC50 of 560 nM.

`CN(C)C/C=C/C(=O)N1CCN(c2nc(-c3ccc(Oc4ccccc4)cc3)c(C(N)=O)s2)CC1` [Example 22] registered an IC50 of 2 nM.

Molecule `CC#CC(=O)N1CCCC12CCN(c1nc(-c3ccc(Oc4ccccc4)cc3)c(C(N)=O)s1)CC2` [Example 24] registered a half-maximal inhibitory concentration (IC50) of 150 nM.

For `C[C@H](Cl)C(=O)N1CC2(C1)CN(c1nc(-c3ccc(Oc4ccccc4)cc3)c(C(N)=O)s1)C2` [Example 20], the concentration for half-maximal inhibition (IC50) was found to be 350 nM.

On to `C=CC(=O)N1CCN(c2nc(-c3cnn(Cc4ccccc4)c3)c(C(N)=O)s2)CC1` [Example 27], for which inhibition was half-maximal at 710 nM (IC50).
